The target in the first data set is Sodium/potassium-transporting ATPase. Kind of data set: Inhibition of human Na+/K+-ATPase assessed as reduction in inorganic phosphate release from ATP incubated for 15 mins followed by ATP addition measured over 15 mins in presence of Na+/K+ by colorimetric method. The class given is protein-complex assay.
Settings: not given
With `COC(=O)CC[C@]1(C)[C@H]2C[C@@H](O)[C@@H]3[C@@H]([C@@]4(C)CCCC(C)(C)O4)CC[C@@]3(C)[C@]2(C)CC(=O)[C@H]1C(C)(C)O`, the IC50 was found to be 260 nM.

As to `CC1(C)CCC[C@](C)([C@H]2CC[C@]3(C)[C@@H]2[C@H](O)C[C@@H]2[C@@]4(C)CCC(=O)C(C)(C)[C@@H]4[C@@H](O)C[C@]23C)O1`, the IC50 worked out at 1140 nM.

Regarding `CC1(C)CCC[C@](C)([C@H]2CC[C@]3(C)[C@@H]2[C@H](O)C[C@@H]2[C@@]4(C)Cc5c([nH]c6ccc(F)cc56)C(C)(C)[C@@H]4C(=O)C[C@]23C)O1`, the IC50 was 910 nM.

On to `CC1(C)CCC[C@](C)([C@H]2CC[C@]3(C)[C@@H]2[C@H](O)C[C@@H]2[C@@]4(C)Cc5c([nH]c6ccccc56)C(C)(C)[C@@H]4C(=O)C[C@]23C)O1`, for which the IC50 was 770 nM.

`C=CCO[C@H]1C[C@]2(C)[C@H](C[C@@H](O)[C@@H]3[C@@H]([C@@]4(C)CCCC(C)(C)O4)CC[C@]32C)[C@@]2(C)CCC(=O)C(C)(C)[C@H]12`: the IC50 was 910 nM.

Turning to `CC1(C)CCC[C@](C)([C@H]2CC[C@]3(C)[C@@H]2C(=O)C[C@@H]2[C@@]4(C)CCC(=O)OC(C)(C)[C@@H]4[C@@H](O)C[C@]23C)O1`, the IC50 was 1230 nM.

With `CC1(C)CCC[C@](C)([C@H]2CC[C@]3(C)[C@@H]2[C@H](O)C[C@@H]2[C@@]4(C)CC[C@H](OCc5ccccc5)C(C)(C)[C@@H]4C(=O)C[C@]23C)O1`, the IC50 was found to be 300 nM.

For the compound `CC1(C)CCC[C@](C)([C@H]2CC[C@]3(C)[C@@H]2[C@H](O)C[C@@H]2[C@@]4(C)CC[C@H](Oc5noc(=O)[nH]5)C(C)(C)[C@@H]4C(=O)C[C@]23C)O1`, the IC50 came out at 960 nM.

As to `CC1(C)CCC[C@](C)([C@H]2CC[C@]3(C)[C@@H]2[C@H](O)C[C@@H]2[C@@]4(C)CCC(=O)C(C)(C)[C@@H]4[C@@H](OCc4ccccc4)C[C@]23C)O1`, the IC50 was 330 nM.

As for `COC(=O)CC[C@@]1(C)CC(=O)C[C@]2(C)[C@@H]1C[C@@H](O)[C@@H]1[C@@H]([C@@]3(C)CCCC(C)(C)O3)CC[C@]12C`, the IC50 amounted to 410 nM.

With `CC1(C)CCC[C@](C)([C@H]2CC[C@]3(C)[C@@H]2[C@H](O)C[C@@H]2[C@@]4(C)Cc5c([nH]c6ccc(OC(F)(F)F)cc56)C(C)(C)[C@@H]4C(=O)C[C@]23C)O1`, the IC50 was determined as 360 nM.

With `CC1(C)CCC[C@](C)([C@H]2CC[C@]3(C)[C@@H]2[C@H](O)C[C@@H]2[C@@]4(C)CCC(=O)OC(C)(C)[C@@H]4C(=O)C[C@]23C)O1`, the IC50 came to 1180 nM.

As to `CC1(C)CCC[C@](C)([C@H]2CC[C@]3(C)[C@@H]2[C@H](O)C[C@@H]2[C@@]4(C)CC[C@H](OCc5ccc(OC(F)(F)F)cc5)C(C)(C)[C@@H]4C(=O)C[C@]23C)O1`, the IC50 was found to be 450 nM.

In the case of `CC1(C)CCC[C@](C)([C@H]2CC[C@]3(C)[C@@H]2[C@H](O)C[C@@H]2[C@@]4(C)CC[C@H](O)C(C)(C)[C@@H]4[C@@H](O)C[C@]23C)O1` [PANAXATRIOL], the IC50 was 1090 nM.

Take `CC1(C)CCC[C@](C)([C@H]2CC[C@]3(C)[C@@H]2[C@H](O)C[C@@H]2[C@@]4(C)CCC(=O)NC(C)(C)[C@@H]4C(=O)C[C@]23C)O1`: the IC50 came to 410 nM.

With `CCO[C@H]1CC[C@]2(C)[C@H]3C[C@@H](O)[C@@H]4[C@@H]([C@@]5(C)CCCC(C)(C)O5)CC[C@@]4(C)[C@]3(C)CC(=O)[C@H]2C1(C)C`, the IC50 turned out to be 1140 nM.

Take `CC1(C)CCC[C@](C)([C@H]2CC[C@]3(C)[C@@H]2[C@H](O)C[C@@H]2[C@@]4(C)CCC(=O)C(C)(C)[C@@H]4C(=O)C[C@]23C)O1`: the IC50 came out at 810 nM.

`C=C(C)[C@@H]1C(=O)C[C@]2(C)[C@H](C[C@@H](O)[C@@H]3[C@@H]([C@@]4(C)CCCC(C)(C)O4)CC[C@]32C)[C@@]1(C)CCC(=O)OC`: the IC50 was 1090 nM.

As to `C=CCO[C@H]1CC[C@]2(C)[C@H]3C[C@@H](O)[C@@H]4[C@@H]([C@@]5(C)CCCC(C)(C)O5)CC[C@@]4(C)[C@]3(C)CC(=O)[C@H]2C1(C)C`, the IC50 is 1050 nM.

Consider `CC1(C)CCC[C@](C)([C@H]2CC[C@]3(C)[C@@H]2C(=O)C[C@@H]2[C@@]4(C)CCC(=O)C(C)(C)[C@@H]4[C@@H](O)C[C@]23C)O1`, for which the IC50 came out at 700 nM.

With `CC1(C)CCC[C@](C)([C@H]2CC[C@]3(C)[C@@H]2C(=O)C[C@@H]2[C@@]4(C)CCC(=O)OC(C)(C)[C@@H]4C(=O)C[C@]23C)O1`, the IC50 is 1130 nM.

For `CCOC(=O)NC(=S)O[C@H]1CC[C@]2(C)[C@H]3C[C@@H](O)[C@@H]4[C@@H]([C@@]5(C)CCCC(C)(C)O5)CC[C@@]4(C)[C@]3(C)CC(=O)[C@H]2C1(C)C`, the IC50 was 1380 nM.

On to `CC1(C)CCC[C@](C)([C@H]2CC[C@]3(C)[C@@H]2[C@H](OCc2ccccc2)C[C@@H]2[C@@]4(C)CCC(=O)C(C)(C)[C@@H]4[C@@H](OCc4ccccc4)C[C@]23C)O1`, for which the IC50 turned out to be 870 nM.

Regarding `CC1(C)CCC[C@](C)([C@H]2CC[C@]3(C)[C@@H]2[C@H](O)C[C@@H]2[C@@](C)(CCC(=O)O)CC(=O)C[C@]23C)O1`, the IC50 is 540 nM.

For the compound `C=CCO[C@H]1C[C@]2(C)[C@H](C[C@@H](OCC=C)[C@@H]3[C@@H]([C@@]4(C)CCCC(C)(C)O4)CC[C@]32C)[C@@]2(C)CCC(=O)C(C)(C)[C@H]12`, the half-inhibitory concentration (IC50) stood at 750 nM.

Take `CC1(C)CCC[C@](C)([C@H]2CC[C@]3(C)[C@@H]2C(=O)C[C@@H]2[C@@]4(C)CCC(=O)C(C)(C)[C@@H]4C(=O)C[C@]23C)O1`: the IC50 turned out to be 760 nM.

Turning to `CC1(C)CCC[C@](C)([C@H]2CC[C@]3(C)[C@@H]2[C@H](O)C[C@@H]2[C@@]4(C)CC[C@H](O)C(C)(C)[C@@H]4C(=O)C[C@]23C)O1`, the IC50 was found to be 1180 nM.

System in the next data set: not listed separately
In words: Arrhythmogenic activity in Langendorff-perfused heart rat model at 0.26 umol/L administered for 30 mins following 60 mins perfusion with K-H solution. The format is toxicity, tissue-based. The following applies: 0.5 h, 0.26 µM.
Compound `COC(=O)CC[C@]1(C)[C@H]2C[C@@H](O)[C@@H]3[C@@H]([C@@]4(C)CCCC(C)(C)O4)CC[C@@]3(C)[C@]2(C)CC(=O)[C@H]1C(C)(C)O` displayed an Activity of 0%.

Take `C[C@H]1O[C@@H](O[C@H]2[C@@H](O)C[C@H](O[C@H]3[C@@H](O)C[C@H](O[C@H]4CC[C@@]5(C)[C@H](CC[C@@H]6[C@@H]5C[C@@H](O)[C@]5(C)[C@@H](C7=CC(=O)OC7)CC[C@]65O)C4)O[C@@H]3C)O[C@@H]2C)C[C@H](O)[C@@H]1O` [DIGOXIN]: the Activity turned out to be 50%.

Source of the values: ChEMBL document CHEMBL4229479, “Synthesis and evaluation of panaxatriol derivatives as Na+, K+-ATPase inhibitors” (Bioorg Med Chem Lett, 2018).
